From patent US7262325B2, “Method of preparing salicylamides” (Emisphere Technologies, Inc., priority 2000, dated 2007)

From the text: A preferred base for such an alkylation reaction is sodium carbonate. […] The water content of the reaction mixture may also be reduced by performing the reaction in a low pressure atmosphere (e.g a vacuum).

solubility in DMAC: about 6%
SMILES: O=c1[n-]c(=O)c2ccccc2o1.[Na+] [carsalam-sodium]
